Reference: patent US20250325566A1, “C[…]-9-TETRAHYDROCANNABINOL AND TERPENES” (Vertanical GmbH, priority 2022, published 2025)

test system: different cancer cell lines (MCF-7, HCT-116, CaCO2); experiment: MTT cytotoxicity assay, single substances vs combination, different cancer cell lines; format: cell-based; settings: THC + alpha-bisabolol + guaiol vs single substance, 48 h
Protocol: The following cell lines were used for the experiment: CaCO2 (Pharmacelsus), HCT-116 (ATCC, Cat #CCL-247), and MCF-7 (ECACC, Cat #86012803). All cell lines were maintained at 37° C., 5% CO2 and 95% humidity. The medium was replaced three times per week and the monolayer was sub-cultured in a ratio of 1:5 when the culture reaches a confluence of 80%. The specific cultivation medium for each cell line was as follows: CaCO2 cell line was cultured in DMEM (PAN-Biotech, Cat #P04-03500) supplemented with 10% FBS Good (PAN-Biotech, Cat #P40-37500) and 1% NEAA (PAN-Biotech, Cat #P08-32100), HCT-116 cell line was cultured in McCoy's A5 medium (PAN-Biotech, Cat #P04-05500) supplemented with 10% FBS Good, and MCF-7 cell line was cultured in RPMI 1640 (PAN-Biotech, Cat #P04-16500) supplemented with 10% FBS and 2 mM GlutaMAX (Gibco, Cat #35050). All cell culture media were routinely supplemented with 1% Penicillin/Streptomycin (PAN-Biotech, Cat #P06-07100).
For the cytotoxicity assay, cells were seeded into 96-well flat bottom microtiter plates at a density of 10,000 cells/well and allowed to attach to the plate for 24 hours before the start of the experiment. […]
Quantification of viable cells was performed by using commercial MTT assay kit (Cell Proliferation Kit I (MTT), Sigma, Cat #11465007001). […] The formazan crystals formed are solubilized and the resulting coloured solution is quantified.
Cells were prepared as described in Example 1.1. […] Conversion of MTT to formazan was recorded by measuring the absorbance at 570 nm with reference wavelength 650 nm by using a spectrophotometer (Spectramax Plus, Molecular Devices). […]

Row | Compound | IC50 values in combinatory treatment compared to single treatment
1 | CCCCCc1cc(O)c2c(c1)OC(C)(C)[C@@H]1CCC(C)=C[C@@H]21 [THC, delta-9-tetrahydrocannabinol] | remain unchanged
2 | CC(C)=CCC[C@](C)(O)[C@@H]1CC=C(C)CC1 [alpha-bisabolol] | remarkably reduced
3 | C[C@H]1CC[C@@H](C(C)(C)O)CC2=C1CC[C@@H]2C [guaiol] | remarkably reduced
